In ChEMBL document CHEMBL1123906, “Folate analogues. 30. Synthesis and biological evaluation of N10-propargyl-5,8-dideaza-5,6,7,8-tetrahydrofolic acid and related compounds” (J Med Chem, 1987) one finds IC50, Activity and inhibition data, which are given here for ten compounds.

In assay [1] the target is T1, Thymidylate synthase (Mus musculus, UniProt P07607). Put plainly: Evaluated for the inhibition of thymidylate synthase in permeabilised L1210 cells. It counts as cell-based.
The target of assay [2] is T2, Thymidylate synthase (Lactobacillus casei, UniProt P00469).
T2 sequence (P00469 whole entry): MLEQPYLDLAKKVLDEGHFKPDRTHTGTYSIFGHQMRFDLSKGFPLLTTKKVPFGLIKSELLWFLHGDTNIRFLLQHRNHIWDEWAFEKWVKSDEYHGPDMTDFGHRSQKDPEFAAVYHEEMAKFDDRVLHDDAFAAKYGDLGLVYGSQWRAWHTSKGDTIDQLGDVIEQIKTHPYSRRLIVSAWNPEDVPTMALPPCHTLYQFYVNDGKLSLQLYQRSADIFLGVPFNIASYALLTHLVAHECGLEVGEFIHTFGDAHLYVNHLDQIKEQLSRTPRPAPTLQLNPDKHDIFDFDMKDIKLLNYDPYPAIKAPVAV
The experiment in a line: Evaluated for the inhibition of thymidylate synthase in Lactobacillus casei. Details: species or system Lacticaseibacillus casei.

The target of assay [3] is T1, Thymidylate synthase. Put plainly: Evaluated for the inhibition of thymidylate synthase in intact L1210 cells. It counts as cell-based.
The subject of assay [4] is Enterococcus faecium. Put plainly: Antimicrobial activity against Streptococcus faecium strain, MTX-resistant. The class given is functional. The arrangement: unit not given here.
In assay [5] the target is Dihydrofolate reductase (Lactobacillus casei, UniProt P00381). Put plainly: Evaluated for the inhibition of dihydrofolate reductase in Lactobacillus casei. Details: species or system Lacticaseibacillus casei.
Sequence of Dihydrofolate reductase (P00381 whole entry): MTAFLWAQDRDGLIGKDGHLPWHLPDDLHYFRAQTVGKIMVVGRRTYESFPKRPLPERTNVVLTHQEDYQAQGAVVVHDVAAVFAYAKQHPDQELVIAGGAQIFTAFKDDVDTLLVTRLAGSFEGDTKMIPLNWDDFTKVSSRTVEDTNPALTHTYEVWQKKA
The test system of assay [6] is Lacticaseibacillus casei. Put plainly: Antimicrobial activity against Lactobacillus casei strain ATCC 7469. Details: unit not given here. The class given is functional.
Assay [7] concerns Enterococcus faecium. The experiment in a line: Antimicrobial activity against Streptococcus faecium strain, ATCC 8043. The class given is functional.
In assay [8] the test system is Lacticaseibacillus casei. Put plainly: Antimicrobial activity against Lactobacillus casei MTX-resistant strain. Details: unit not given here. The class given is functional.
In assay [9] the test system is Thymidylate synthase (Bos taurus). Put plainly: Inhibition of Calf thymus thymidylate synthase in the presence of 20 uM.
Assay [10] has as its target T3, Dihydropteroate synthase (Escherichia coli K-12) (UniProt P0AC13).
T3 sequence (whole entry): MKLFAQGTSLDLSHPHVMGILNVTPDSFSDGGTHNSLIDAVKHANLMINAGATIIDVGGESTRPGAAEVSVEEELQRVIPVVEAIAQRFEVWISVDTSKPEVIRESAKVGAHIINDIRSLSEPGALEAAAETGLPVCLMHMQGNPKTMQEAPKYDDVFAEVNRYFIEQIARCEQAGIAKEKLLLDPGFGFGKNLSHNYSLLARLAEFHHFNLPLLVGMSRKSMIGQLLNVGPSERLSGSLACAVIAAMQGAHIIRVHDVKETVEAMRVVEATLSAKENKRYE
The experiment in a line: Inhibition of E. uM. To be noted: concentration not given here.

The subject of assay [11] is Enterococcus faecium. The experiment in a line: Antimicrobial activity against Streptococcus faecium strain ATCC 8043. The arrangement: unit not given here. The class given is functional.

T1 sequence (P07607 whole entry): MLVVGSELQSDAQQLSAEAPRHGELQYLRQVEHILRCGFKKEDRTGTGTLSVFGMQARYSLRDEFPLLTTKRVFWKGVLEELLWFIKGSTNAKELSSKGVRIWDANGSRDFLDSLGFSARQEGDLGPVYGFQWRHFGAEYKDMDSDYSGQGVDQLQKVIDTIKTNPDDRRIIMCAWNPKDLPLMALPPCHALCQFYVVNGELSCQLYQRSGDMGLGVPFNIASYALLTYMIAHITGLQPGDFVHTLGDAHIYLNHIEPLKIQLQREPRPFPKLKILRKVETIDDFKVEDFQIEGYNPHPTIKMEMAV

For the compound `C#CCN(CC1CCc2nc(N)nc(O)c2C1)c1ccc(C(=O)NC(CCC(=O)O)C(=O)O)cc1` (configuration not stated), the IC50 was found to be 11 µM in assay [1], 23 µM in assay [2], 1100 µM in assay [3] and 10 µM in assay [5]. The Activity in assay [4] is recorded as 350; in [6], 4.7; in assay [7], 1.8; in [8], above 10000. In addition, the inhibition in [9] was 50%.
As for `Nc1nc(O)c2c(n1)CCC(CO)C2` (configuration not stated), in [10], the inhibition was determined as 1.3%.
Turning to `Nc1nc(O)c2c(n1)CCC(CNc1ccc(C(=O)NC(CCC(=O)O)C(=O)O)cc1)C2` (configuration not stated), the IC50 in [1] is 12 µM; in [2] it was above 280 µM; in assay [3] it was 1000 µM; in [5], 30 µM. The Activity is given as 900 in [4], 7.5 in assay [6], 140 in assay [7] and above 20000 in assay [8].
Turning to `CN(CC1CCc2nc(N)nc(O)c2C1)c1ccc(C(=O)NC(CCC(=O)O)C(=O)O)cc1` (configuration not stated), the Activity is 13 in assay [4], 2.8 in assay [6], 0.57 in [7] and above 20000 in assay [8]. The inhibition in [10] came to 35.1%.
For the compound `C#CCN(Cc1ccc2[nH]c(N)nc(=O)c2c1)c1ccc(C(=O)NC(CCC(=O)O)C(=O)O)cc1` (configuration not stated), the Activity was 20 in [4], 0.13 in assay [11], 0.4 in assay [6] and 6400 in assay [8].
Consider `Nc1nc(O)c2c(n1)CCC(CNc1ccc(C(=O)O)cc1)C2` (configuration not stated), for which the IC50 in assay [2] and in [5] was above 200 µM each time. Besides, the Activity was above 20000 in assay [4], 400 in assay [11] and above 20000 in [6].
As for `C#CCN(CC1CCc2nc(N)nc(O)c2C1)c1ccc(C(=O)O)cc1` (configuration not stated), the IC50 was 610 µM in assay [2] and 190 µM in assay [5]. Also, the Activity in assay [4] is on record as 14000; in assay [11], 26; in [6], 1000; in [8], above 20000.
`CN(CC1CCc2nc(N)nc(O)c2C1)c1ccc(C(=O)O)cc1` (configuration not stated): the 50% inhibitory concentration (IC50) in assay [2] and in assay [5] was above 200 µM in each case. In addition, the Activity in assay [4] is listed as 8200; in assay [11] it was 5.2; in assay [6] it was 15800; in [8] it was above 20000.
For `CN(CC1CCc2nc(N)[nH]c(=O)c2C1)c1ccc(C(=O)NC(CCC(=O)O)C(=O)O)cc1` (configuration not stated), the concentration for half-maximal inhibition (IC50) amounted to 120 µM in assay [2] and 16 µM in assay [5].
Compound `Nc1nc(O)c2c(n1)CCC(CBr)C2` (configuration not stated) displayed an inhibition in [10] of 7%.

One may read the IC50 as the concentration needed to halve the response being measured. One may read the inhibition as the drop in the measured response relative to a control, in per cent.
